Test results published in patent US9943560B2, “Medical compositions containing liquorice extracts with synergistic effect” (priority 2010, dated 2018).
Values after ≈ are worked out from the molar mass of the structure shown. Values joined by “and” are separate entries in the source; they are usually repeats but may differ in a detail not shown here. Identical values can stand only once.

Legend:
[1] = test system: PC-3 cells; experiment: In vitro killing of PC-3 cells (MTS, 72 h); format: cell-based; details: PC-3, 72 h
From the text: 4. Experiment on In Vitro Killing of PC-3 Cell
PC-3 cells i.e. prostate cancer cells, which are bought from American ATCC, is a kind of adherent cells.
Its medium, culture conditions and experimental procedures are all the same with that of the above method 1.

[2] = test system: MCF-7 cells; experiment: In vitro killing of MCF-7 cells (MTS, 72 h); format: cell-based, human; details: MCF-7, 72 h
Method: MCF-7 cells i.e. human breast cancer cells, which are bought from American ATCC, is a kind of adherent cells.
90% 1640 medium+10% fetal calf serum+30mmol/L Hepes+6 μg/ml insulin.
Its culture conditions and experimental procedures are all the same with that of the above method 1.

[3] = test system: Colon38 cells; experiment: In vitro killing of Colon38 cells (MTS, 72 h); format: cell-based, murine; details: Colon38, 72 h
Method: 1. Experimental Sources of In Vitro Killing Colon38 Cells
Colon38 cells i.e. murine colon carcinoma cells, which was gifted from Dept. of Pharmacology, Yale Medical School and are a kind of adherent cells.
(§1) 90% 1640 culture solution plus 10% newborn calf serum (NCS), 100 ml in total, and then add lml miscible liquids containing 1% penicillin and 1% streptomycin.
Cultivate it in an incubator of 37° C. with 5% CO2. The cells will passage every 3 days, and carry out the experiment when the cells enter their logarithmic growth period after two or three times of passage.
2. Experiment on In Vitro Killing of SGC-7901 Cell Source: […]

[4] = test system: Colon 38; experiment: Drug combination on inhibiting tumor cells, Combination Index (Chou-Talalay), Colon 38; format: cell-based, murine; details: partner drugs as named in the sentence (G007, I3C, DIM, Cis-platinum)
From the text: According to the cells and experiment methods used in Embodiment 2, differences are incurred from that dose concentration is confirmed by the following methods: when two drugs are combined, the concentration of one drug is chosen to be approximate to but smaller than IC50 while the concentration of other drugs is chosen to be in gradient dilution, to perform a series of experiments. When it is experimented that 50% tumor cells are inhibited, then the concentration of all drugs used at that moment is recorded as their IC50 value, and the CI value of the two drugs can be calculated with the formula in the above document.

[5] = test system: postprandial blood glucose of Type 2 diabetics; experiment: Clinical observation: postprandial blood glucose control in high-blood-glucose patients; format: in vivo, human
From the text: The postprandial blood glucose of Type 2 diabetics not sensitive to insulin is an important index of abnormal glucose metabolism and can be used to test the effect of drugs in reducing blood glucose.

[6] = test system: colon cancer cell strain colon38 transplanted tumor; experiment: Anti-tumor effect on colon38 transplanted tumor in mice; format: in vivo; details: for Death number: dead animals of 10 per group, represents side effects; for Death number / Average weight of tumor / Tumor inhibiting rate: dose as in Table VI; for Average weight of tumor: mice, once a week, four times; for Average weight of tumor / Tumor inhibiting rate: after four weeks; for Tumor inhibiting rate: vs CK group
From the text: Based on the method described in Pharmacology Research Methodology of Chinese Medicine (Chinese TCM Publishing House), test the anti-tumor effects of Chalcone A, G007, AG007-16 etc prepared in Embodiment 1, chemotherapy drugs (5-fluorouracil) and HBD09 on animal model of human cancer heterogeneity transplanted tumor. 5-fluorouracil (short for fu) is a broad-spectrum anti-tumor drug and mainly used to cure digestive tract tumor; the common adverse reactions are sicchasia, anorexia or vomiting, abdominal discomfort or diarrhea.
The dose given is as shown in Table VI; intragastric administration/ or injection administration is given once a week and four times in total.

[7] = test system: SGC-7901 cells; experiment: In vitro killing of SGC-7901 cells (MTS, 72 h); format: cell-based, human; details: SGC-7901, 72 h
Method: SGC-7901 cells i.e. human gastric cancer cells which are bought from Cell Bank of Chinese Academy of Sciences/Shanghai Institute of Life Sciences Cell Resource Center of Chinese Academy of Sciences are adherent cells.
as §1
Cultivate it in an incubator of 37° C. with CO2 of 5 percent. The cells will passage once every 3 days, and carry out the experiment when the cells enter their logarithmic growth period after two or three times of passage.
3. Experiment on In Vitro Killing of MCF-7 Cell Source

C=CC(C)(C)c1cc(/C=C/C(=O)c2ccc(O)cc2)c(OC)cc1O [Chalcone A]
IC50 [1]: 7.8 µg/mL (≈ 23 µM) | IC80 [1]: 13.3 µg/mL (≈ 39.3 µM) | IC50 [2]: 9.1 µg/mL (≈ 26.9 µM) | IC80 [2]: 21.3 µg/mL (≈ 62.9 µM) | IC50 [3]: 9.1 µg/mL (≈ 26.9 µM) | IC80 [3]: 24.77 µg/mL (≈ 73.2 µM) | synergistic effects in combination [4]: synergistic effects | ratio of glucose reduction ([5]; average after-meal glucose with vs without drug intake): 13.6% | Average blood glucose, drug intake, after meal ([5]; average of three patients, two hours after meal): 11.4 mM/L | effect on controlling postprandial blood glucose ([5]; high-blood-glucose patients, compared with soybean): significant effects | Blood glucose, drug intake, before meal ([5]; individual patient, oral dose before meal): 7.9 mM/L and 8.6 mM/L and 8.5 mM/L | Blood glucose, drug intake, after meal ([5]; individual patient, two hours after 300 g boiled corn, oral dose before meal): 10.6 mM/L and 12.0 mM/L and 11.6 mM/L | anti-tumor effect and side effects in the animal model ([6]; alone or in combination with 5-fluorouracil): reduce the side effects brought by 5-fluorouracil dose | Death number [6]: 0 | Average weight of tumor [6]: 2.36 ± 0.13 g | Tumor inhibiting rate [6]: 23% | IC50 [7]: 9.7 µg/mL (≈ 28.7 µM) | IC80 [7]: 29.70 µg/mL (≈ 87.8 µM)

c1ccc2c(Cc3c[nH]c4ccccc34)c[nH]c2c1 [HBD09, bis-indolymethane]
IC50 [1]: 13.8 µg/mL (≈ 56 µM) | IC80 [1]: 23.9 µg/mL (≈ 97 µM) | IC50 [2]: 15.6 µg/mL (≈ 63.3 µM) | IC80 [2]: 31.2 µg/mL (≈ 127 µM) | IC50 [3]: 18.59 µg/mL (≈ 75.5 µM) | IC80 [3]: 48.51 µg/mL (≈ 197 µM) | Death number [6]: 2 | Average weight of tumor [6]: 2.6 ± 0.15 g | Tumor inhibiting rate [6]: 15% | IC50 [7]: 18.2 µg/mL (≈ 73.9 µM) | IC80 [7]: 51.24 µg/mL (≈ 208 µM)

O=c1[nH]cc(F)c(=O)[nH]1 [CK1(fu), 5-fluorouracil]
Death number [6]: 6 | Average weight of tumor [6]: 1.74 ± 0.11 g | Tumor inhibiting rate [6]: 43%

N.N.[Cl][Pt][Cl] [Cis-platinum]
IC50 [2]: 3.92 µg/mL | IC50 [3]: 3.92 µg/mL | IC50 [7]: 5.4 µg/mL
